According to paper PMC2933614, “Quantitative in vitro and in vivo pharmacological profile of CE-178253, a potent and selective cannabinoid type 1 (CB1) Receptor Antagonist” (BMC Pharmacology, 2010):
Entries after “also recorded” stand apart in the source; their conditions may differ. Read-outs that look alike come from different tables or passages of the source.

Columns and labels:
[1] = Unbound plasma concentration of CE-178253; assay type: in vivo, rat; conditions: for Unbound Plasma Concentration (± S-D): indirect calorimetry study; for concentration at […]: Sprague-Dawley, rat, plasma, oral, fast-induced refeeding study, read-out: Unbound Plasma Concentration (± S-D)
Protocol: Plasma bound fractions for CE-178253 were determined using an equilibrium dialysis assay, as previously described. Spectra-Por 2 membranes (Spectrum Laboratories Inc., Rancho Dominguez, CA) with a molecular cut-off of 12-14 kDa were used for the dialysis. Equilibrium of the system was achieved by incubating the apparatus for 4.5 hr in a 37°C reciprocating water bath (set at 155 rpm). A standard curve was set up over the range 1-1000 ng/mL. All samples were quantified using liquid chromatography/tandem mass spectrometry using a PE Sciex API 3000 spectrometer. For plasma, the unbound fraction was determined as the ratio of concentrations determined in buffer and plasma.

[2] = target: T1, rat brain membranes (predominantly CB1) (Rattus norvegicus, UniProt P20272); assay: Competition radioligand binding, rat brain membranes
T1 construct: In rat membranes prepared from whole brain; from tissue; host or cells: rat whole brain membranes
T1 sequence (P20272 whole entry): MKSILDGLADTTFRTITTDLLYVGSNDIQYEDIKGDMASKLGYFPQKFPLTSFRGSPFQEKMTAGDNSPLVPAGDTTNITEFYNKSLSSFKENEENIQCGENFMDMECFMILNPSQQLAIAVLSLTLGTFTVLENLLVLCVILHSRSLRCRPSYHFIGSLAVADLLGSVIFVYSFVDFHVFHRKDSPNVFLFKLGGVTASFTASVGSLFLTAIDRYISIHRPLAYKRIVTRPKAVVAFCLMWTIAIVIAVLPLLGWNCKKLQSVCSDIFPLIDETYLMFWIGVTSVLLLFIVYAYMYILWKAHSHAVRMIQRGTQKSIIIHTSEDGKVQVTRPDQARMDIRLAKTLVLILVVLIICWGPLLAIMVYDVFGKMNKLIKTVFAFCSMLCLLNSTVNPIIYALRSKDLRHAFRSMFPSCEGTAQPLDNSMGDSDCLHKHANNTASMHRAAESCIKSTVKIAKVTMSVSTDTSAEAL
Protocol: (§1) HEK293 (CB1) or CHO (CB1 and CB2) cells (ATCC) were stably transfected with the human CB1 or CB2 receptors. Rat brain, and recombinant CB1 and CB2 and membranes were prepared as described. A Pierce™ BCA kit was used to determine protein concentrations.
(§2) 10 μg of membranes per well from human CB1 and CB 2 receptor transfected cells and rat brain was used in the assay. The plates were covered and placed in an incubator at 30°C for 60 min. At the end of the incubation period 125 μl of stop buffer (10% BSA plus TME) was added to the reaction plate. The plates were then harvested onto GF/C filter plates (Perkin Elmer Life Sciences) presoaked in BSA (5 mg/ml) plus TME. Each filter was washed twice with TME and dried overnight. In the morning the filters were counted on a Wallac Trilux™ counter.
(§3) Saturation and competition radioligand binding assays were used to characterize membranes prepared from human recombinant CB1 and CB2 and rat brain membranes.

[3] = target: Vanilloid 1 (TRPV1) receptor channel (Homo sapiens, UniProt Q8NER1); assay: TRPV1 functional assay; assay type: biochemical; conditions: range 9-13%, n = 2
Chain of Vanilloid 1 (TRPV1) receptor channel (Q8NER1 whole entry, species assumed): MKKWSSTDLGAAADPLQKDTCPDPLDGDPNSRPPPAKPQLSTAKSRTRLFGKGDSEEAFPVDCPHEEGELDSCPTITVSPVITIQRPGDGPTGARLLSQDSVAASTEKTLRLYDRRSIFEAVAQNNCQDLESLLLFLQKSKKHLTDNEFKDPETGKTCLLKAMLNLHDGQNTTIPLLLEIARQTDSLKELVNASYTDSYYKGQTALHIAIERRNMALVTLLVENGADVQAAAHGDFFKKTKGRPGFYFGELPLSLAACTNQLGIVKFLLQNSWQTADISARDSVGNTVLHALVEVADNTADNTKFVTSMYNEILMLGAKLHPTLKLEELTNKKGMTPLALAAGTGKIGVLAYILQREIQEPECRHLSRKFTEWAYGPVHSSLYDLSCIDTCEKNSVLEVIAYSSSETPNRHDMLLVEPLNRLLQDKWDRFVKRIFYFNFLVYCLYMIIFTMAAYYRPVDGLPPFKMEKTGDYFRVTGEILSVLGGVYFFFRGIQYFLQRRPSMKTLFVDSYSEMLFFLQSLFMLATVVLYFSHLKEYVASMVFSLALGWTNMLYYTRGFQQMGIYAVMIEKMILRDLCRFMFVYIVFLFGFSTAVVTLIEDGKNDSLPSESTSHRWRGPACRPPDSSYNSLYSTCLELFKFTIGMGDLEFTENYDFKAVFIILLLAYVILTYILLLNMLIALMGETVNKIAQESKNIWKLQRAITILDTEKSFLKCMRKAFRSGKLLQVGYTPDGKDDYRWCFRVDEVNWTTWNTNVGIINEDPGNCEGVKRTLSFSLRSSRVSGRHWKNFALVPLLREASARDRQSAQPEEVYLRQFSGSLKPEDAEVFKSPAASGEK
From the text: (§4) Rimonabant also binds weakly to the Vanilloid 1 (TRPV1) receptor channel. […] CE-178253 was not evaluated against TRPM8. Rimonabant has been reported to bind to TRPM8 [21].

GPR55 = GPR55 (Homo sapiens, UniProt Q9Y2T6); assay: GPR55 functional assay; assay type: biochemical; conditions: 10 μM
Chain of GPR55 (Q9Y2T6 whole entry, species assumed): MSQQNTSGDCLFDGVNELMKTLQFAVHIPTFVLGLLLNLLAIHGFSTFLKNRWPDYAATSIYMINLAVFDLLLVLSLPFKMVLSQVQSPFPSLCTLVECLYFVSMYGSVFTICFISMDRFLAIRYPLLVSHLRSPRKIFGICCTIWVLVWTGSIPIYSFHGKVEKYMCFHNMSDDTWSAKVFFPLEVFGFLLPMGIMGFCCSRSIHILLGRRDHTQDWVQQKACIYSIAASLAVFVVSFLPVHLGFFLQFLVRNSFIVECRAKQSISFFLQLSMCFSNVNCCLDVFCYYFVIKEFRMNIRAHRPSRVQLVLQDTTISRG
From the text: as §4

[4] = Fast-induced re-feeding food intake; assay type: in vivo, rat; conditions: for Food Intake % decrease (mean ± SEM): 2 hr after return of food
From the text: All animal studies were approved by the Institutional Animal Care and Use Committee. Male Sprague Dawley rats on normal chow (8 weeks old, 250-300 g on arrival, 300-350 g on test day) were obtained from Charles River. After arrival, animals were individually housed and placed on powdered rat chow. Rats were maintained on a 12-hr light/dark cycle and received food and water ad libitum. In all studies CE-178253 and veh (0.5% methyl cellulose) administration to rats and mice was by oral gavage.
For the fast-induced re-feeding assay, food was removed from the cages the afternoon preceding the test day and the rats were fasted overnight. After the overnight fast, rats were administered veh. or CE-178253. […]
Administration of CE-178253 to male S-D rats inhibited overnight fast-induced refeeding. S-D rats were fasted overnight and veh. (0.5% methylcellulose; MC) or CE-178253 was administered orally. Food was provided to the rats 30 min after dosing. Food intake was measured 30 min and 2 hr after return of food. Dose- and unbound plasma concentration-dependent decreases in cumulative FI versus veh. were observed (Figure 4A, B, Table 3) at both time points after return of food. However, the efficacy (as a percent) was greater in the 0.5-2 hr interval than in the first 0.5 interval. In contrast, FI efficacy in the dark-phase feeding was consistent throughout the first four hr (Figure 3B).

human CB1 in CHO cells = target: T2, human CB1 in CHO cells (Homo sapiens, UniProt P21554); assay: GTPγ[35S] inverse agonist assay; assay type: biochemical
T2 construct: expressed in transfected cells
T2 sequence (P21554 whole entry): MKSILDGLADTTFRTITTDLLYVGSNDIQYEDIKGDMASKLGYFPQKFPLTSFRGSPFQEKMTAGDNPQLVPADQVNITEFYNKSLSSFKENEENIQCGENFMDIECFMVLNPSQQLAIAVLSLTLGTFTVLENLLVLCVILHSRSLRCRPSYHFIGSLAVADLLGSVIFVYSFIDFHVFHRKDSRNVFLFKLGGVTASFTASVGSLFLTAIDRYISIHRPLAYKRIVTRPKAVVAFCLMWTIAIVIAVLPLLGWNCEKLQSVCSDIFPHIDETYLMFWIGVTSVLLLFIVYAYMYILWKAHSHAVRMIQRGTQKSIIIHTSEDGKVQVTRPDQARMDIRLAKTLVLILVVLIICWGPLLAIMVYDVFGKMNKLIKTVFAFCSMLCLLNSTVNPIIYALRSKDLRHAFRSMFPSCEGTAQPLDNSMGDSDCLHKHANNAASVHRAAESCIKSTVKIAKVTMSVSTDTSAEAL
Protocol: GTPγ[^35S] binding assays were performed as described. GTPγ[^35S] binding assays were performed in a 96-well FlashPlate™ format in duplicate using 100 pM GTPγ[^35S] and 10 μg membrane per well in assay buffer composed of 50 mM Tris HCl (pH 7.4); 3 mM MgCl2 (pH 7.4); 10 mM MgCl2, 20 mM EGTA, 100 mM NaCl, 30 μM GDP, 0.1% BSA and the following protease inhibitors: 100 μg/ml bacitracin, 100 μg/ml benzamidine, 5 μg/ml aprotinin, and 5 μg/ml leupeptin. […] Assays were performed at 30°C for 1 hr. The FlashPlates™ were then centrifuged at 2000×g for 10 min. Stimulation of GTPγ[^35S] binding was then quantified using a Wallac Microbeta® [16].

human CB2 receptor = target: T3, human CB2 receptor (Homo sapiens, UniProt P34972); assay: Competition radioligand binding, human CB2
T3 construct: expressed in transfected cells
T3 sequence (P34972 whole entry): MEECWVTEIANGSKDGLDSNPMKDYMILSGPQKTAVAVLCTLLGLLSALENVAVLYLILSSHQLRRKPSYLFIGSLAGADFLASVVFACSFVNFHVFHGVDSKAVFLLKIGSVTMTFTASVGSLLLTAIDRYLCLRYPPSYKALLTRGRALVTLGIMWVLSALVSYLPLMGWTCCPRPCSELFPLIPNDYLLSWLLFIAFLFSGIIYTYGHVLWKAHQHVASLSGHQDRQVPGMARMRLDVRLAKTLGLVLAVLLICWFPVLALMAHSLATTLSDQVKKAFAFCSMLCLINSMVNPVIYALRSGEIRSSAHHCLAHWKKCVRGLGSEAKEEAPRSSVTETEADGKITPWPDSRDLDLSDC
Protocol: as §1, §2, §3

[5] = test system: other receptors, ion channels, and uptake sites (Table 2); assay: Binding panel at 1 μM; conditions: any site of Table 2
From the text: as §4

CCNC1(C(N)=O)CN(c2nc(C)nc3c(-c4ccc(Cl)cc4)c(-c4ccccc4Cl)nn23)C1 [CE-178253]
Unbound Plasma Concentration (± S-D) ([1]; 1 mg/kg p.o.): 0.8 ± 0.2 nM | Unbound Plasma Concentration (± S-D) ([1]; 3 mg/kg p.o.): 3.8 ± 0.9 nM | concentration at […] ([1]; 0.3 mg/kg p.o.): 0.17 ± 0.02 nM | concentration at […] ([1]; 1 mg/kg p.o.): 1 ± 0.3 nM | concentration at […] ([1]; 3 mg/kg p.o.): 2.7 ± 1 nM | concentration at […] ([1]; 10 mg/kg p.o.): 15.6 ± 1.6 nM | Ki [2]: 0.43 ± 0.13 nM | inhibition at 10 µM [3]: 11% | Agonist activity at GPR55 (GPR55): No agonist activity was detected; also recorded: GPR55 (no activity at 10 μM) | Food Intake % decrease (mean ± SEM) ([4]; 0.3 mg/kg p.o.): 6 ± 3% | Food Intake % decrease (mean ± SEM) ([4]; 1 mg/kg p.o.): 25 ± 11% | Food Intake % decrease (mean ± SEM) ([4]; 3 mg/kg p.o.): 62 ± 5.2 % | Food Intake % decrease (mean ± SEM) ([4]; 10 mg/kg p.o.): 75 ± 6.2 % | EC50 ([4]; Rattus norvegicus, […], read-out: EC50, reduction of food intake): 0.95 nM | Reduction in FI ([4]; interval between dosing and return of food extended to 2 hr, at 50% receptor occupancy, p < 0.05): 27% | Maximal FI reduction ([4]; two hr): 70% | Inverse agonist potency weaker than binding potency (human CB1 in CHO cells): 6 fold | Inverse agonist potency weaker than functional potency (human CB1 in CHO cells): 29 fold | IC50 (human CB1 in CHO cells; decrease in basal GTPγ[35S] binding): 2 ± 0.56 nM | Emax (human CB1 in CHO cells; percent decrease in basal GTPγ[35S] binding, read-out: Intrinsic Activity): 21% | Ki (human CB2 receptor; [3H]CP-55940, ± SEM (n), read-out: Ki, competition binding, hCB2): 15700 ± 6170 nM | Selectivity (hCB2 vs hCB1 binding Ki) (human CB2 receptor; difference in binding Ki values): > 30,000 fold | Inhibition of binding at panel sites [5]: ≤ 50%
